Measured values from ChEMBL document CHEMBL1201862, “PubChem BioAssay data set” (2004).
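1) Cells in 96-well plates. 2) Compound, 48 h, 5 concentrations. 3) Linear interpolation between surrounding doses. 4) Unreached endpoint = highest concentration. Here, GI50 denotes the concentration required for 50% inhibition of growth.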 Active and inactive are the calls of the source. Cut-off read from the data, not from the text of the source: active = GI50 up to about 1.1 µM and inactive = higher.

How the values were obtained:
Experiment in all cases: growth of human tumour cells (NCI), 48 h
[1] = system: OVCAR-8
[2] = system: SW-620
[3] = system: U-251
[4] = system: NCI/ADR-RES
[5] = system: CCRF-CEM
[6] = system: HOP-62
[7] = system: EKVX
[8] = system: KM12
[9] = system: M14
[10] = system: SR
[11] = system: RXF 393
[12] = system: CAKI-1
[13] = system: A549
[14] = system: SNB-75
[15] = system: SNB-19
[16] = system: UO-31
[17] = system: NCI-H522
[18] = system: SK-MEL-5
[19] = system: T47D
[20] = system: LOX IMVI

| Compound | GI50 [1] | GI50 [2] | GI50 [3] | GI50 [4] | GI50 [5] | GI50 [6] | GI50 [7] | GI50 [8] | GI50 [9] | GI50 [10] | GI50 [11] | GI50 [12] | GI50 [13] | GI50 [14] | GI50 [15] | GI50 [16] | GI50 [17] | GI50 [18] | GI50 [19] | GI50 [20] |
| --- | --- | --- | --- | --- | --- | --- | --- | --- | --- | --- | --- | --- | --- | --- | --- | --- | --- | --- | --- | --- |
| CCOP(=O)(OCC)/C(C#N)=C/c1cn(C)cn1 | > 100 µM (inactive) | > 100 µM (inactive) | > 100 µM (inactive) | > 100 µM (inactive) | > 100 µM (inactive) | > 100 µM (inactive) | > 100 µM (inactive) | > 100 µM (inactive) | > 100 µM (inactive) | > 100 µM (inactive) | > 100 µM (inactive) | > 100 µM (inactive) | > 100 µM (inactive) | > 100 µM (inactive) | > 100 µM (inactive) | > 100 µM (inactive) | > 100 µM (inactive) | > 10 µM (inactive) |  |  |
| CC(C)CCCC(C)[C@H]1CC[C@H]2[C@@H]3CC[C@H]4C[C@@H](CCC=C(c5cc(Cl)c(O)c(C(=O)OC(C)C)c5)c5cc(Cl)c(O)c(C(=O)OC(C)C)c5)CC[C@]4(C)[C@H]3CC[C@]12C (stereo partly specified) | > 50 µM (inactive) | > 50 µM (inactive) | > 50 µM (inactive) | > 50 µM (inactive) | > 50 µM (inactive) | > 50 µM (inactive) | > 50 µM (inactive) | > 50 µM (inactive) | > 50 µM (inactive) |  | > 50 µM (inactive) | > 50 µM (inactive) | > 50 µM (inactive) | > 50 µM (inactive) | > 50 µM (inactive) |  |  | > 50 µM (inactive) | > 50 µM (inactive) | > 50 µM (inactive) |
| O=C(C1OC1c1ccc(Cl)cc1)C12CC3CC(CC(C3)C1)C2 (stereo unspecified) | 16.5 µM (inactive) | 20.3 µM (inactive) | 15.4 µM (inactive) | 22.9 µM (inactive) | 19 µM (inactive) | 24.8 µM (inactive) | 23.1 µM (inactive) | 18.8 µM (inactive) | 17.8 µM (inactive) |  | 21.8 µM (inactive) | 28.8 µM (inactive) | 21.8 µM (inactive) | 32.8 µM (inactive) | 31.5 µM (inactive) | 20.4 µM (inactive) | 20.9 µM (inactive) | 14.5 µM (inactive) | 31.6 µM (inactive) | 4.02 µM (inactive) |
| CC(C)(C)NNc1c([N+](=O)[O-])cnn(-c2ccccc2)c1=O | 2.26 µM (inactive) | 1.76 µM (inactive) | 3.2 µM (inactive) |  | 0.944 µM (active) | 8.63 µM (inactive) | 9.14 µM (inactive) | 10.4 µM (inactive) | 2.17 µM (inactive) | 1.58 µM (inactive) | 8.32 µM (inactive) | 8.69 µM (inactive) | 15.3 µM (inactive) | 9.86 µM (inactive) | 11.2 µM (inactive) | 6.12 µM (inactive) | 1.77 µM (inactive) | 4.51 µM (inactive) | 2.29 µM (inactive) | 1.79 µM (inactive) |
| CCCCCCCCNC(=O)C1=C(C)NC(C)=C(C(=O)NCCCCCCCC)C1 | > 100 µM (inactive) | > 100 µM (inactive) | 94.4 µM (inactive) | > 100 µM (inactive) | 39.6 µM (inactive) | > 100 µM (inactive) | > 100 µM (inactive) | > 100 µM (inactive) | > 100 µM (inactive) |  | > 100 µM (inactive) | > 100 µM (inactive) | > 100 µM (inactive) | 23.2 µM (inactive) | > 100 µM (inactive) | 77.6 µM (inactive) | > 100 µM (inactive) | > 100 µM (inactive) | 48.2 µM (inactive) | > 100 µM (inactive) |
| O=C(O)c1c[nH]c2c(Sc3ccccc3)nccc2c1=O | > 100 µM (inactive) | > 100 µM (inactive) | > 100 µM (inactive) | > 100 µM (inactive) | 47 µM (inactive) | > 100 µM (inactive) | 70.3 µM (inactive) | 39.9 µM (inactive) | > 100 µM (inactive) |  |  | > 100 µM (inactive) | > 100 µM (inactive) | > 100 µM (inactive) | > 100 µM (inactive) | > 100 µM (inactive) | 76.7 µM (inactive) | > 100 µM (inactive) | > 100 µM (inactive) | 44.2 µM (inactive) |
| COc1cc(OC)cc(-n2c(N)c(C#N)c3ccc([N+](=O)[O-])cc3c2=O)c1 | 18.7 µM (inactive) | > 100 µM (inactive) | 22.9 µM (inactive) | 41.8 µM (inactive) |  |  |  | > 100 µM (inactive) |  | 14.2 µM (inactive) |  | 30.8 µM (inactive) | 43.4 µM (inactive) | 19.7 µM (inactive) | 17.5 µM (inactive) | 19.5 µM (inactive) |  | 30.3 µM (inactive) | 33.7 µM (inactive) | > 100 µM (inactive) |
| Nc1nc2c(c(-c3ccc(F)cc3)n1)COC/C2=C\c1ccc(F)cc1 | 58.2 µM (inactive) | > 100 µM (inactive) | 15.4 µM (inactive) | 65.8 µM (inactive) | 52.5 µM (inactive) | 34.6 µM (inactive) | 18.6 µM (inactive) | 15.7 µM (inactive) | > 100 µM (inactive) | 17 µM (inactive) | 52.7 µM (inactive) | > 100 µM (inactive) |  | 20.5 µM (inactive) | 24.8 µM (inactive) | 14.7 µM (inactive) | 10.8 µM (inactive) | 56 µM (inactive) |  |  |
| CC1=C(C(=O)NNC(=O)CC#N)CC(C(=O)NNC(=O)CC#N)=C(C)N1 | > 100 µM (inactive) | > 100 µM (inactive) | > 100 µM (inactive) | > 100 µM (inactive) |  | > 100 µM (inactive) | > 100 µM (inactive) | > 100 µM (inactive) | > 100 µM (inactive) |  | > 100 µM (inactive) | > 100 µM (inactive) | > 100 µM (inactive) | > 100 µM (inactive) | > 100 µM (inactive) | > 100 µM (inactive) |  | > 100 µM (inactive) | 93.3 µM (inactive) | > 100 µM (inactive) |
| SC1=NC2=C(CSC/C2=C\c2ccc(Cl)cc2)C(c2ccc(Cl)cc2)N1 (stereo unspecified) | 39.2 µM (inactive) | 41.3 µM (inactive) | 36.8 µM (inactive) | 38.1 µM (inactive) | 24.7 µM (inactive) | 36 µM (inactive) | 38 µM (inactive) | 25.9 µM (inactive) |  | 32.2 µM (inactive) |  | 42.3 µM (inactive) | 34.4 µM (inactive) |  | 44.3 µM (inactive) | 32.4 µM (inactive) | 42.8 µM (inactive) | 19.1 µM (inactive) | 28.6 µM (inactive) | 27 µM (inactive) |
| CC1(O)C2(c3ccccc3)CCC[N+]1(C)CC2 (stereo unspecified) | > 100 µM (inactive) | > 100 µM (inactive) | > 100 µM (inactive) | > 100 µM (inactive) | > 100 µM (inactive) | > 100 µM (inactive) |  | > 100 µM (inactive) | > 100 µM (inactive) |  | > 100 µM (inactive) | > 100 µM (inactive) |  | > 100 µM (inactive) | > 100 µM (inactive) | > 100 µM (inactive) |  | > 100 µM (inactive) | > 100 µM (inactive) | > 100 µM (inactive) |
| Cc1nc2ccc(Br)cc2c(=O)n1-c1ccc(N)cc1 | > 100 µM (inactive) | > 100 µM (inactive) |  | > 100 µM (inactive) | > 100 µM (inactive) | > 100 µM (inactive) | > 100 µM (inactive) | > 100 µM (inactive) | > 100 µM (inactive) | > 100 µM (inactive) | 28.1 µM (inactive) | > 100 µM (inactive) | > 100 µM (inactive) | 17.2 µM (inactive) | > 100 µM (inactive) | 84.5 µM (inactive) |  | > 100 µM (inactive) |  | > 100 µM (inactive) |
| O=C(CSCC(=O)N/N=C/c1cccc(C(F)(F)F)c1)N/N=C/c1cccc(C(F)(F)F)c1 | 2.9 µM (inactive) |  |  | > 100 µM (inactive) |  | > 100 µM (inactive) | > 100 µM (inactive) |  | > 100 µM (inactive) |  | > 100 µM (inactive) | > 100 µM (inactive) |  | > 100 µM (inactive) | > 100 µM (inactive) | > 100 µM (inactive) | > 100 µM (inactive) | > 100 µM (inactive) | > 100 µM (inactive) | > 100 µM (inactive) |
| O=C(CCCN1CCC2(CC1)CC(=O)N(N1CCOCC1)C2=O)c1ccc(F)cc1 | > 100 µM (inactive) | > 100 µM (inactive) | > 100 µM (inactive) | > 100 µM (inactive) | > 100 µM (inactive) | > 100 µM (inactive) |  | > 100 µM (inactive) | > 100 µM (inactive) |  | > 100 µM (inactive) | > 100 µM (inactive) | > 100 µM (inactive) | > 100 µM (inactive) | > 100 µM (inactive) | > 100 µM (inactive) | > 100 µM (inactive) | > 100 µM (inactive) | > 100 µM (inactive) | > 100 µM (inactive) |
| CCOC(=O)/C(=C\NC(C)(C)CO)c1nc2ccccc2[nH]1 | 74.8 µM (inactive) | > 100 µM (inactive) |  | 79.6 µM (inactive) | 35.6 µM (inactive) | > 100 µM (inactive) | > 100 µM (inactive) | 75 µM (inactive) | > 100 µM (inactive) | 47.3 µM (inactive) | > 100 µM (inactive) | > 100 µM (inactive) | 86.5 µM (inactive) | > 100 µM (inactive) | > 100 µM (inactive) | 0.426 µM (active) | 61.7 µM (inactive) | 26.7 µM (inactive) |  | > 100 µM (inactive) |
| NS(=O)(=O)c1ccc(C(=O)O)cc1 [CARZENIDE] | > 100 µM (inactive) | > 100 µM (inactive) | > 100 µM (inactive) | > 100 µM (inactive) | > 100 µM (inactive) | > 100 µM (inactive) | > 100 µM (inactive) | > 100 µM (inactive) | > 100 µM (inactive) |  | > 100 µM (inactive) | > 100 µM (inactive) | > 100 µM (inactive) |  | > 100 µM (inactive) | > 100 µM (inactive) | > 100 µM (inactive) | > 100 µM (inactive) | > 100 µM (inactive) | > 100 µM (inactive) |
